Test [1] relates to TLR2 induced IL-6 in peripheral blood mononuclear cells (PBMCs). Briefly: PBMC TLR2 Induced IL-6 Assay. It counts as cell-based, human. The settings on record: IL-6 by ELISA; for EC50: read-out: Cell EC50; for IC50: read-out: Cell IC50. The procedure: PBMC TLR2 Induced IL-6 Assay
Peripheral blood mononuclear cells (PBMCs) were isolated from human blood containing the anti-coagulant EDTA (2.5 mM) by centrifugation over a FICOLL® gradient. PBMCs (250000 cells/well) were cultured in assay media (RPMI with 10% heat inactivated FCS) with compounds for 30 minutes at 37° C. in a 5% CO2 incubator. Following pretreatment with compounds, cells were stimulated for 5 hours with 10 µg/ml lipoteichoic acid (Invivogen, San Diego, Calif.), a TLR2 agonist. At the end of the culture, plates were centrifuged at 1800 rpm for 10 minutes to pellet the cells.

The target of another test is IRAK4 (Homo sapiens (Human), UniProt Q9NWZ3). Briefly: IRAK4 Inhibition Assay. It counts as biochemical. Here is the method: The assays were performed in U-bottom 384-well plates. […] The reaction was initiated by the combination of IRAK4 with substrates and test compounds. The reaction mixture was incubated at room temperature for 60 min. and terminated by adding 45 μL of 35 mM EDTA to each sample. The reaction mixture was analyzed on the Caliper LABCHIP® 3000 (Caliper, Hopkinton, Mass.) by electrophoretic separation of the fluorescent substrate and phosphorylated product.
IRAK4, sequence (Q9NWZ3 whole entry, species assumed): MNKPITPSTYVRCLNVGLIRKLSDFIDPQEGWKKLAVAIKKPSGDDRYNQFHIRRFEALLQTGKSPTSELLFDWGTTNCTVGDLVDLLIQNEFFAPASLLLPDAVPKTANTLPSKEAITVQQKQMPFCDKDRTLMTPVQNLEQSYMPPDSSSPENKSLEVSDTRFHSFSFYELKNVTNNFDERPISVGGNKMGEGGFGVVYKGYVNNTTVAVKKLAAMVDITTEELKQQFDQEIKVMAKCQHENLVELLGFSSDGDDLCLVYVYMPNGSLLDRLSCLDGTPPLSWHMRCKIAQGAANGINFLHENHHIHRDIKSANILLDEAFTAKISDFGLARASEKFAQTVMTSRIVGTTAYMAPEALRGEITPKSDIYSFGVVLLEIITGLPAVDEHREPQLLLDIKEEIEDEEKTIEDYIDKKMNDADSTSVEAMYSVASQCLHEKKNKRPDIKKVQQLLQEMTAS

Setting [2] is: PBMC TLR2 Induced IL-6 Assay, lipoteichoic acid stimulation.
The mark [3] stands for this setting: IRAK4 Inhibition Assay, ATP 500 μM, read-out: IRAK4 IC50.
Where [4] appears, read: Homo sapiens, PBMC, PBMC TLR2 Induced IL-6 Assay, lipoteichoic acid stimulation.
The mark [5] stands for this setting: Homo sapiens, PBMC, human PBMCs, lipoteichoic acid stimulated.
[6] abbreviates: ATP 500 μM, IRAK4 0.6 nM, read-out: IRAK4 IC50.
Setting [7] is: human PBMCs, lipoteichoic acid stimulated.

Counter-ions that a name gives are not always drawn. Like-named read-outs stand apart in the source and are kept apart here.

Consider “6-(5-cyano-1H-pyrrolo[2,3-b]pyridin-1-yl)-N—((S)-2-fluoro-3-hydroxy-3-methylbutyl)-4-((3-fluorotetrahydro-2H-pyran-4-yl)amino) nicotinamide [Example 108]”, for which, in test [1] (setting [2]), the EC50 came to 172 nM. For the same molecule, the IC50 on IRAK4 (setting [3]) amounted to 3.5 nM. With `CC(CCF)Nc1cc(-n2ncc3cc(C#N)cnc32)ncc1C(=O)NC[C@@H](F)C(C)(C)O` (mixture of isomers) [Example 205], in test [1] (setting [4]), the EC50 stood at 240 nM. Also, the IC50 on IRAK4 (setting [3]) was 7 nM.

As for `CC(F)Cn1cc(Nc2cc(-n3cnc4cc(C#N)cnc43)ncc2C(=O)NC[C@@H](F)C(C)(C)O)cn1` (mixture of isomers) [Example 378], the IC50 turned out to be 655 nM in test [1] (setting [4]) and 2.6 nM on IRAK4 (setting [3]). With `CC(C)(O)[C@H](F)CNC(=O)c1cnc(-n2ccc3cc(C#N)cnc32)cc1NC1CC1c1c[nH]cn1` (mixture of isomers) [Example 460], in test [1] (setting [5]), the EC50 came to 88 nM and the IC50 is 113 nM. The IC50 at IRAK4 (setting [6]) was found to be 3.3 nM. For the molecule `CC1COCCN1CCNc1cc(-n2ccc3cc(C#N)cnc32)ncc1C(=O)NC[C@@H](F)C(C)(C)O` (mixture of isomers) [Example 483], the EC50 in test [1] (setting [5]) was found to be 199 nM. The IC50 on IRAK4 (setting [6]) came out at 10.8 nM. For the molecule `CC(F)(CO)CNc1cc(-n2ncc3cc(C#N)cnc32)ncc1C(=O)NC[C@@H](F)C(C)(C)O` (mixture of isomers) [Example 575], the IC50 was found to be 587 nM in test [1] (setting [5]) and 11.8 nM at IRAK4 (setting [6]).

`CC(CCO)Nc1cc(-n2ccc3cc(C#N)cnc32)ncc1C(=O)NC[C@@H](F)C(C)(C)O` (single isomer, unassigned) [Example 21]: the EC50 in test [1] (setting [4]) turned out to be 51 nM. Moreover, the IC50 on IRAK4 (setting [3]) stood at 2.3 nM.

With `CC(CCO)Nc1cc(-n2ccc3cc(C#N)cnc32)ncc1C(=O)NC[C@@H](F)C(C)(C)O` (single isomer, unassigned) [Example 22], in test [1] (setting [2]), the EC50 turned out to be 47 nM. The 50% inhibitory concentration (IC50) on IRAK4 (setting [3]) came out at 1.8 nM.

Turning to `CC(C)(O)[C@H](F)CNC(=O)c1cnc(-n2ccc3cc(C#N)cnc32)cc1NC1CCOCC1F` (single isomer, unassigned) [Example 106], the IC50 in test [1] (setting [4]) came to 896 nM; on IRAK4 (setting [3]), 1.9 nM. The EC50 in test [1] (setting [2]) stood at 896 nM.

Turning to `CC(C)(O)[C@H](F)CNC(=O)c1cnc(-n2ccc3cc(C#N)cnc32)cc1NC1CCOCC1F` (single isomer, unassigned) [Example 107], the EC50 in test [1] (setting [2]) was 57 nM. The IC50 at IRAK4 (setting [3]) was found to be 1.8 nM. Take `CC(C)(O)[C@H](F)CNC(=O)c1cnc(-n2ccc3cc(C#N)cnc32)cc1NC1CCC(F)C1` (single isomer, unassigned) [Example 109]: the EC50 in test [1] (setting [4]) came out at 45 nM. The IC50 at IRAK4 (setting [3]) was determined as 1 nM. Turning to `CC(C)(O)[C@H](F)CNC(=O)c1cnc(-n2ccc3cc(C#N)cnc32)cc1NC1CCC(F)C1` (single isomer, unassigned) [Example 110], the EC50 in test [1] (setting [2]) amounted to 47 nM. At IRAK4 (setting [3]), the IC50 came out at 1.3 nM.

With `CC(C)(O)[C@H](F)CNC(=O)c1cnc(-n2ccc3cc(C#N)cnc32)cc1NC1CCCC(F)(F)C1O` (single isomer, unassigned) [Example 112], the EC50 in test [1] (setting [4]) was 159 nM. In addition, the IC50 at IRAK4 (IRAK4 IC50) worked out at 4.4 nM. `CC(C)Nc1cc(-n2ccc3cc(C#N)cnc32)ncc1C(=O)NC[C@@H](F)C(C)NC(C)C` (single isomer, unassigned) [Example 129]: the concentration giving a half-maximal response (EC50) in test [1] (setting [2]) came to 451 nM. Further, at IRAK4 (setting [3]), the IC50 was 4.1 nM. As to `CC(C)Nc1cc(-n2ccc3cc(C#N)cnc32)ncc1C(=O)NC[C@@H](F)C(C)NC(C)C` (single isomer, unassigned) [Example 130], the EC50 in test [1] (setting [2]) stood at 99 nM. Further, the IC50 on IRAK4 (setting [3]) was 2.3 nM.

`CC(C)(O)[C@H](F)CNC(=O)c1cnc(-n2ncc3cc(C#N)cnc32)cc1NC1CCCOC1` (single isomer, unassigned) [Example 142]: the EC50 in test [1] (setting [4]) turned out to be 354 nM. Moreover, the IC50 at IRAK4 (setting [3]) came to 11.4 nM. With `CC(C)(O)[C@H](F)CNC(=O)c1cnc(-n2ncc3cc(C#N)cnc32)cc1NC1CCCOC1` (single isomer, unassigned) [Example 143], the concentration giving a half-maximal response (EC50) in test [1] (setting [2]) turned out to be 185 nM. The IC50 at IRAK4 (setting [3]) was determined as 6.5 nM. Regarding `CC(F)[C@H](C)Nc1cc(-n2ncc3cc(C#N)cnc32)ncc1C(=O)NC[C@@H](F)C(C)(C)O` (single isomer, unassigned) [Example 202], the EC50 in test [1] (setting [4]) is 131 nM. At IRAK4 (setting [3]), the IC50 stood at 10.6 nM.

With `CC(F)[C@H](C)Nc1cc(-n2ncc3cc(C#N)cnc32)ncc1C(=O)NC[C@@H](F)C(C)(C)O` (single isomer, unassigned) [Example 203], the EC50 in test [1] (setting [2]) was 124 nM. Besides, at IRAK4 (setting [3]), the IC50 turned out to be 3.9 nM.

Take `CC(C)Nc1cc(-n2ncc3cc(C#N)cnc32)ncc1C(=O)NC[C@@H](F)C(O)C(C)C` (single isomer, unassigned) [Example 232]: in test [1] (setting [4]), the EC50 was 33 nM. Moreover, the values for the IC50 (in test [1] (setting [4]); on IRAK4 (setting [3])) were 211 nM and 2.3 nM, respectively.

For `CC(C)Nc1cc(-n2ncc3cc(C#N)cnc32)ncc1C(=O)NC[C@@H](F)C(O)C(C)C` (single isomer, unassigned) [Example 233], in test [1] (setting [2]), the EC50 amounted to 38 nM. The concentration for half-maximal inhibition (IC50) in test [1] (setting [2]) was 176 nM; at IRAK4 (setting [3]), 3.6 nM.

Take `CC(CCF)Nc1cc(-n2ccc3cc(C#N)cnc32)ncc1C(=O)NC[C@@H](F)C(C)(C)O` (single isomer, unassigned) [Example 426]: the concentration for a half-maximal effect (EC50) in test [1] (setting [5]) turned out to be 51 nM. Besides, on IRAK4 (setting [6]), the IC50 worked out at 1.6 nM. Regarding `C[C@H](CF)Nc1cc(-n2ncc3cc(C#N)cnc32)ncc1C(=O)NC[C@@H](F)C(C)(C)O` [Example 114, 6-(5-Cyano-1H-pyrazolo[3,4-b]pyridin-1-yl)-N—((R)-2-fluoro-3-hydroxy-3-methylbutyl)-4-(((R)-1-fluoropropan-2-yl)amino)nicotinamide], the IC50 on IRAK4 (setting [3]) came out at 4.6 nM. Regarding `[2H]C([2H])([2H])OC(C)(C)[C@H](F)CNC(=O)c1cnc(-n2ccc3cc(C#N)cnc32)cc1NC(C)C` [Example 442], the EC50 in test [1] (setting [5]) turned out to be 42 nM. `CC(C)Nc1cc(-n2ccc3cc(C#N)cnc32)ncc1C(=O)NC1CCC(C(C)(O)C2CC2)CC1` (stereo not shown) [Example 444]: the EC50 in test [1] (setting [7]) turned out to be 186 nM. The same measure, in the same setting: for `CC(C)Nc1cc(-n2ccc3cc(C#N)cnc32)ncc1C(=O)NC1CCC(C(C)(O)C2CC2)CC1` (stereo not shown) [Example 446] the value was 51 nM. As to `CC(C)(O)[C@H](F)CNC(=O)c1cnc(-n2ccc3cc(C(N)=O)cnc32)cc1NCC1CNC1` [Example 475], in test [1] (setting [5]), the concentration for a half-maximal effect (EC50) is 305 nM and the IC50 turned out to be 1180 nM. For `CC(C)Nc1cc(-n2ccc3cc(CNC(=O)CC(C)(C)O)cnc32)ncc1C(=O)NC[C@@H](F)C(C)(C)O` [Example 499], the IC50 in test [1] (setting [5]) turned out to be 213 nM. `CC(C)(O)[C@H](F)CNC(=O)c1cnc(-n2ncc3cc(C#N)cnc32)cc1Nc1ccc(C#N)cc1` [Example 523]: the EC50 in test [1] (setting [5]) is 24 nM. `CC(C)(O)[C@H](F)CNC(=O)c1cnc(-n2ncc3cc(C#N)cnc32)cc1N[C@@H]1CCN(c2ncc(F)cn2)C1` [Example 534]: the half-maximal inhibitory concentration (IC50) in test [1] (setting [5]) was 824 nM. Besides, in test [1] (setting [7]), the EC50 amounted to 59 nM.

Take `CC(C)(O)[C@H](F)CNC(=O)c1cnc(-n2ncc3cc(C#N)cnc32)cc1N[C@@H]1CCOC1` [Example 544, 6-(5-Cyano-1H-pyrazolo[3,4-b]pyridin-1-yl)-N—((R)-2-fluoro-3-hydroxy-3-methylbutyl)-4-(((R)-tetrahydrofuran-3-yl)amino)nicotinamide, TFA salt]: in test [1] (human PBMCs, lipoteichoic acid stimulated, TFA salt), the EC50 worked out at 239 nM.

As to `CC(C)(O)[C@H](F)CNC(=O)c1cnc(-n2ncc3cc(C#N)cnc32)cc1N[C@H]1CCOC1` [Example 545, 6-(5-Cyano-1H-pyrazolo[3,4-b]pyridin-1-yl)-N—((R)-2-fluoro-3-hydroxy-3-methylbutyl)-4-(((S)-tetrahydrofuran-3-yl)amino)nicotinamide, TFA salt], the 50% effective concentration (EC50) in test [1] (setting [5]) is 476 nM.

As to `CC(C)(O)[C@H](F)CNC(=O)c1cnc(-n2ncc3cc(C#N)cnc32)cc1N[C@@H]1CCOC1` [Example 548], the IC50 in test [1] (setting [5]) is 763 nM. In addition, in test [1] (setting [7]), the EC50 amounted to 708 nM. As for `CCCNc1cc(-n2ncc3cc(C#N)cnc32)ncc1C(=O)NC[C@@H](F)C(C)(C)O` [Example 592], the IC50 in test [1] (setting [5]) stood at 271 nM.

Turning to `CC(F)CCNc1cc(-n2ncc3cc(C#N)cnc32)ncc1C(=O)NC[C@@H](F)C(C)(C)O` (stereo partly shown) [Example 604], the IC50 in test [1] (setting [5]) came to 104 nM. `CC(C)(O)[C@H](F)CNC(=O)c1cnc(-n2ncc3cc(C#N)cnc32)cc1NC1CCC(F)C1` (stereo partly shown) [Example 625]: the IC50 in test [1] (setting [7]) turned out to be 210 nM. Regarding `CC(C)(O)[C@H](F)CNC(=O)c1cnc(-n2ncc3cc(C#N)cnc32)cc1NC1CCC(F)C1` (stereo partly shown) [Example 626], the IC50 in test [1] (setting [7]) turned out to be 76 nM.

Consider `CC(C)(O)[C@H](F)CNC(=O)c1cnc(-n2ncc3cc(C#N)cnc32)cc1NC1CCC(F)C1` (stereo partly shown) [Example 627], for which, in test [1] (setting [7]), the IC50 worked out at 7 nM.
